Assay results taken from US20030203975A1, “Anti-cancer agents” (priority 1998, published 2003).
pIC50: −log10 of the molar value.

Columns and labels:
[1] = test system: DNA: Calf thymus sodium salt; assay: DNA binding assay, ethidium bromide displacement; parameters: key: NB = Not binding; conditions: concentration required to displace 50% of the ethidium bromide; 20 μM DNA, 2 μM dye
Experimental: (§1) The propensity of selected compounds to bind to DNA in the absence of topos was measured in order to identify compounds that would bind weakly, or not at all. […] A […] was used determine binding constants of the compound to DNA by displacement of either ethidium bromide (an intercalator) or Hoechst dye 33258 (a groove binder) which form a DNA-bound fluorescent complex measured by fluorescence spectroscopy.
(§2) DNA Binding Assay Protocol
(§3) In order to detect the strength and mode of anthraquinone compound binding to DNA the displacement of known DNA binders was detected by measuring the fluorescence of a DNA/fluorescent compound complex. The addition of known concentrations of ethidium bromide, an interchelator, and Hoescht Dye, a groove binder, cause a fluorescent DNA/binder complex that can be detected and the fluorescence quantified. The addition of anthraquinone compounds displaces the interchelators or groove binders, depending on the compound mode of DNA binding, and therefore reduces the fluorescence accordingly. The preferred binding action of compounds can be quantified by determining the reduction in fluorescence resulting from a given concentration of compound. The quantification of a compounds ability to bind to DNA is expressed, as the concentration required to displace 50% of the ethidium bromide or Hoescht Dye, thus reducing the fluorescence by 50%. Therefore, the values produced are QE50 for ethidium, bromide, or QH50 for Hoescht Dye.
(§4) Compound: 300, 60, 10 and 10/6gM (1.66 μM) solution concentrations were prepared for use in the assay to produce a range of compound. Concentrations. 100, 200 and 300 μl of each dilution were used in the assay reaction. This provides a range of concentrations: −30, 20, 10, 6, 4, 2, 1, 0.67, 0.33, 0.17, 0.11, 0.06, 0.00 μM in the assay environment. Intermediate concentrations can be utilised to enhance the accuracy of the displacement concentration determination.
(§5) Buffer: 100 mM Tris, NaCI 500 mM. DNA: Calf thymus sodium salt. Stock solution of 200 μM was prepared in 10× assay buffer. Dilution of DNA therefore provided the correct concentration of assay buffer in the assay cell.300 μg DNA was used in 3 ml reaction mixture therefore 20 μM DNA concentration. Hoescht Dye 2 μM final concentration, therefore 100 μl of a 60 μM stock solution was added to a 3 ml assay. Ethidium Bromide 2 μM final concentration therefore 100 μl of a 60 μM stock solution was added to a 3 ml assay. Distilled H2O Water was added to produce 3 ml reaction volume. Order of addition: 1. DNA, 2. Water, 3. Drug, 4. Dye
(§6) The assay was completed with both Hoescht Dye and Ethidium. Bromide for each compound. The ethidium bromide is a DNA inter-chelator, Hoescht Dye is a minor groove binder. 100, 200 and […] of the lowest compound dilution was assayed. This procedure was repeated with all further dilution's. This provided a curve of fluorescence intensity decrease with increasing compound concentration. QE50 and QH50 values were determined by extrapolating the concentration of compound at the point where the fluorescence intensity was reduced by 50%. Controls involving compound only and ethidium. bromide or Hoechst Dye without compound were carried out for each experiment. Two readings for each concentration of compound were performed per experiment, each experiment was repeated at least three times. Fluorometer: Perkin Elmer Luminescence Spectrometer LS 50B.

[2] = test system: MAC 15A adenocarcinoma of the colon; assay: In vitro chemosensitivity against MAC 15A adenocarcinoma (MTT assay); type: cell-based; conditions: Mus musculus, MAC15A, 96 hours continuous exposure
[3] = target: T1, Topoisomerase IIα (Homo sapiens, UniProt P11388); assay: Topo II cleavage assay; type: biochemical; parameters: key: ‘—’ = Not active; conditions: unit not given; compound at 1, 10, 25 and 50 μM in protocol
Experimental: Topo II 5 μl (1-1 μg); […] Results are included in Table 3 below.

[4] = target: T1, Topoisomerase IIα; assay: Topo II relaxation assay; type: biochemical; parameters: key: ‘—’ = Not active; conditions: unit not given; compound at 1, 10, 25 and 50 μM in protocol
Experimental: (§7) Topo II Relaxation Assay Protocol
(§8) 10×Topo II Relaxation Buffer
(§9) 500 mM Tris-HCl (pH 7.5); 100 mM mgCI2; 50 mM EDTA; 300 mg/mI BSA; 10 mM DTT; −20° C.

[5] = target: Topoisomerase IIβ (Homo sapiens, UniProt Q02880); assay: Topo II relaxation assay; type: biochemical; parameters: key: ‘—’ = Not active; conditions: unit not given; compound at 1, 10, 25 and 50 μM in protocol
Experimental: as §7, §8, §9

[6] = target: T1, Topoisomerase IIα; assay: Topo II decatenation assay; type: biochemical; parameters: key: ‘—’ = Not active; conditions: unit not given; kDNA substrate; compound at 1, 10, 25 and 50 μM in protocol
Experimental: Topisomerase Decatenation Assay.
This method uses catenated DNA substrate prepared from the kinetoplast of the insect trypanosome Crithidia fasciculata. Upon incubation with topo II, which engages DNA in a double stranded breakage-reunion cycle, DNA minicircles are released. Addition of topo-inhibiting drugs may prevent decatenation.
Topo II Decatenation Assay Protocol
This assay is the same as the Topo II Relaxation assay except that the pBR 322 Plasmid DNA is replaced with kDNA.
Results are included in Table 3 below

[7] = test system: DNA: Calf thymus sodium salt; assay: DNA binding assay, Hoechst dye displacement; parameters: key: NB = Not binding; conditions: concentration required to displace 50% of the Hoescht Dye; 20 μM DNA, 2 μM dye
Experimental: as §1, §2, §3, §4, §5, §6

T1 sequence (P11388 whole entry): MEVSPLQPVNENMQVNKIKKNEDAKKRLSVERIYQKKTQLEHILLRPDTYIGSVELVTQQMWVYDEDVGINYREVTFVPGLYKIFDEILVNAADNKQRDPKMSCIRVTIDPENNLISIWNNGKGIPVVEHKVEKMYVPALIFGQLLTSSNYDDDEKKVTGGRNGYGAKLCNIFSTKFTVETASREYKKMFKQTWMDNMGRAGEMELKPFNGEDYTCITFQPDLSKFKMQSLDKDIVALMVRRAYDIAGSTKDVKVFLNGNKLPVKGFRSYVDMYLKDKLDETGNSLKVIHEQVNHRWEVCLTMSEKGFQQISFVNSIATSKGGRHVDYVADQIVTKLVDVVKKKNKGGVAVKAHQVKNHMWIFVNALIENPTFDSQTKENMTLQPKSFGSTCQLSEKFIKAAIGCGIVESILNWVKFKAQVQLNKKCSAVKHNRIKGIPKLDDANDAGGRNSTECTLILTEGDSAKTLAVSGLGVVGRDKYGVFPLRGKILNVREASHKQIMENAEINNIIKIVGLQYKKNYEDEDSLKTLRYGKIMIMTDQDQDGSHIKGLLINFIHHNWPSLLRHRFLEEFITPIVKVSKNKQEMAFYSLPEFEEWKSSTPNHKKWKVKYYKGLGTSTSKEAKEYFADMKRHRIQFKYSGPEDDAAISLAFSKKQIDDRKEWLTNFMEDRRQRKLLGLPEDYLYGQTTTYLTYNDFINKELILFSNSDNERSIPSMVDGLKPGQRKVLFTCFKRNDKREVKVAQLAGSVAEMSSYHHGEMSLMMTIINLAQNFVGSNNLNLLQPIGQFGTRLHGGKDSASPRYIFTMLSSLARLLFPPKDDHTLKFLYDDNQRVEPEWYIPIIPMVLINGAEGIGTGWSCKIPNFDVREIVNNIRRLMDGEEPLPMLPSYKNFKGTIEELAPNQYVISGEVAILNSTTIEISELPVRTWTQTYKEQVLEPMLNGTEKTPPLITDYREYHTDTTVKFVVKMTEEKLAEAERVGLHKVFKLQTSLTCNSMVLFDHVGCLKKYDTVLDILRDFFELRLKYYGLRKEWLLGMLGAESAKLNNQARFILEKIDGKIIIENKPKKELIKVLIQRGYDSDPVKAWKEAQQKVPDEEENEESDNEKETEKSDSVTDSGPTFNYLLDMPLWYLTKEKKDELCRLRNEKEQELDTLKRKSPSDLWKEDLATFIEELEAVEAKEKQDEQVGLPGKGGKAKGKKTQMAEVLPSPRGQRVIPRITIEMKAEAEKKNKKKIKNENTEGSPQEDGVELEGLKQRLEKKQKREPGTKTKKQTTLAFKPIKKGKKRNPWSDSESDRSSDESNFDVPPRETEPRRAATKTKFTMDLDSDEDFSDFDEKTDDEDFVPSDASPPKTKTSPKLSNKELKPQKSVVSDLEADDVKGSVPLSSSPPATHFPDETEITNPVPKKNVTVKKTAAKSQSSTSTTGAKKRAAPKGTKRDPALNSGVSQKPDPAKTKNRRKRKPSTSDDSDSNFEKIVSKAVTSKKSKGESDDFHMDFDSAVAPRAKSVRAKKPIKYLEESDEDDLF
Topoisomerase IIβ, sequence (Q02880 whole entry): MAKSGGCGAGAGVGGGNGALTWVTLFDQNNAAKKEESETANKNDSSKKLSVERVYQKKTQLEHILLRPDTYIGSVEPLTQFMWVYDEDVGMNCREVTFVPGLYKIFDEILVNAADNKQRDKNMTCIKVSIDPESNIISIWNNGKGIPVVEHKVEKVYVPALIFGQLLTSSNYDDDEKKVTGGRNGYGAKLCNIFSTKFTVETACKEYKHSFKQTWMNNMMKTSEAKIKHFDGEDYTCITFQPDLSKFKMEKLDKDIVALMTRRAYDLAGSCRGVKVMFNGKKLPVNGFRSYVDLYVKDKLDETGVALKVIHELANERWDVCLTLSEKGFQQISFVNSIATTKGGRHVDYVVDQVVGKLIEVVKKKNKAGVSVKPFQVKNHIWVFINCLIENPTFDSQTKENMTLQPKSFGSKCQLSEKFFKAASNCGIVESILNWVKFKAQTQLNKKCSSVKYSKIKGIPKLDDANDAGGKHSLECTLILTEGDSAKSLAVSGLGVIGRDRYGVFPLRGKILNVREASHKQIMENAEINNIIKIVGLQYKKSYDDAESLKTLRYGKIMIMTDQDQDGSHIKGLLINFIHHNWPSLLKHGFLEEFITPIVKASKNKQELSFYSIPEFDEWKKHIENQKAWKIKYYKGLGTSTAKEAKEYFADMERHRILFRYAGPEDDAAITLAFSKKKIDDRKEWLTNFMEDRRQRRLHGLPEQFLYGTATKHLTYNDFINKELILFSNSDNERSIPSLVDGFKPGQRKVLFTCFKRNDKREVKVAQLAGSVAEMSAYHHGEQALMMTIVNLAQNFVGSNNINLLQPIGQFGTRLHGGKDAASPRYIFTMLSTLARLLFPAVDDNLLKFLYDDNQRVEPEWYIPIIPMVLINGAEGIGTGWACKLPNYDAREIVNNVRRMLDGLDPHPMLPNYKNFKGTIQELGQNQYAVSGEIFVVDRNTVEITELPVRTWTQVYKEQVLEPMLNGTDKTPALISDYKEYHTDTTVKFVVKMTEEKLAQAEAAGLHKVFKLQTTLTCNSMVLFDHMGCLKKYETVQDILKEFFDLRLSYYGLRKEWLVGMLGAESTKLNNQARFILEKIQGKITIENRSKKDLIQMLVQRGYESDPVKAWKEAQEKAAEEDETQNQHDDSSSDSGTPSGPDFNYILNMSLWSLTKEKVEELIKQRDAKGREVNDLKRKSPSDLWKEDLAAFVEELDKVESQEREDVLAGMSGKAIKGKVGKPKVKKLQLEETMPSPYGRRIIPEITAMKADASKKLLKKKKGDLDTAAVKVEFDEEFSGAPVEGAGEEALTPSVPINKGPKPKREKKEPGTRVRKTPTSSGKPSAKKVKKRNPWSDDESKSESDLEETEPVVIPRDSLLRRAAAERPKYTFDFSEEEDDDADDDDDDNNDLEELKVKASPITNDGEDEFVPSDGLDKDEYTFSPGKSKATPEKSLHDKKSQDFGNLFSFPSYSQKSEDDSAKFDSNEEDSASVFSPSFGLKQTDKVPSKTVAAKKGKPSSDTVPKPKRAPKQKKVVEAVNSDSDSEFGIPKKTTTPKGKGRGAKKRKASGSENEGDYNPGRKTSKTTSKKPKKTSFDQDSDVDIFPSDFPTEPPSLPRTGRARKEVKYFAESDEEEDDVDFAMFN

C[C@H](N)C(=O)OCCCCNc1cccc2c1C(=O)c1ccccc1C2=O.O=C(O)C(F)(F)F [Example 43, 1-[4-(L-alanyloxy)butylamino]anthracene-9,10-dione trifluoroacetate] was tested, and the “QE50 Intercalating” value [1] was “NB”, the pIC50 [2] was 5.59 and the “TopIIα Cleave.” value [3] was “—”. The “TopIIα Relax.” value [4] was “—”, the “TopIIβ Relax.” value [5] was 15 and the “TopIIα Decat.” value [6] was “—”. The “QH50 Minor groove binding” value [7] was “NB”.

With C[C@@H](N)C(=O)OCCCCNc1cccc2c1C(=O)c1ccccc1C2=O.O=C(O)C(F)(F)F [Example 45, 1-[4-(D-alanyloxy)butylamino]anthracene-9,10-dione trifluoroacetate] the “QE50 Intercalating” value [1] was “NB”, the pIC50 [2] was 5.54 and the “TopIIα Cleave.” value [3] was “—”. The “TopIIα Relax.” value [4] was “—”, the “TopIIβ Relax.” value [5] was 25 and the “TopIIα Decat.” value [6] was “—”. For the same compound, the “QH50 Minor groove binding” value [7] was “NB”.
